Assay results from US20250099420A1, “SMALL MOLECULE MODULATORS OF GPR139 COMPLEX” (University of Florida Research Foundation, Incorporated, priority 2022, published 2025).
Read-outs that look alike come from different tables or passages of the source. One block for each compound: values may come before it.

Columns and labels:
[1] = biological target: T1, GPR139 (Homo sapiens, UniProt Q6DWJ6); assay: GPR139 Agonist titration / agonist counterscreen assay (calcium detection, HEK-GPR139 cells); assay type: cell-based; design: expressed in transfected cells; host or cells: HEK Aequorin cells, Maxcyte transient transfection; settings: GPR139 Agonist Activity; for Averaged Max % Response (±St. Dev.): activity relative to known control; for EC50: read-out: EC50
T1 sequence (Q6DWJ6 1-353): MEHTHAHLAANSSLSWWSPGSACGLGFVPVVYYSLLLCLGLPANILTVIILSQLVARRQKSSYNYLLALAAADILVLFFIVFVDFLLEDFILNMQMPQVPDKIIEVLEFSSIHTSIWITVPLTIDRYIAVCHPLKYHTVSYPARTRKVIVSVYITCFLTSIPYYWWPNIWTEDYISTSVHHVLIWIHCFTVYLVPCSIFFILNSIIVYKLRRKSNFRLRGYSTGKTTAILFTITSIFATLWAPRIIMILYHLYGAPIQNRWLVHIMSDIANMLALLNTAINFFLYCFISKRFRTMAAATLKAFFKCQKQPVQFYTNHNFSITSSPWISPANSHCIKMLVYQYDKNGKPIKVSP
Protocol: GPR activity was assessed using a calcium detection assay. […] Negative control samples were treated with DMSO. […] Intracellular calcium was measured using Calcium 5.

[2] = test system: parental HEK cells; assay: HEK parental Agonist Counterscreen Assay (non-transfected cells); assay type: cell-based; settings: for Averaged Max % Response (±St. Dev.): activity relative to known control
From the text: The high control for the agonist counterscreen was Forskolin not acetylcholine.

[3] = values printed in E-notation without unit
[4] = HEK Agonist Activity section of Table 4 (parental HEK counterscreen)
[5] = Homo sapiens, HEK293, HEK Agonist Activity section of Table 4 (parental HEK counterscreen)

Structure (SMILES): COc1ccc(CNC(=O)Nc2ccc(-c3cn[nH]c3)cc2)cc1.O=C(O)C(F)(F)F [SR-00000005347]
Averaged Max % Response (±St. Dev.) [1]: 110.92 ± 4.82%
Lipophilic Efficiency (logD) ([1]; based on logD): 4.10
Lipophilic Efficiency (logP) ([1]; based on logP): 4.10
Hill Slope ([1]; fitted dose-response curve): 0.58
Efficiency Ligand ([1]; ligand efficiency): 0.39
EC50 [1, 3]: 189 nM
Lipophilic Efficiency (logD) ([2]; HEK Agonist Activity section): 2.23
Lipophilic Efficiency (logP) ([2]; HEK Agonist Activity section): 2.23
EC50 [2, 4]: > 14100 nM
Averaged Max % Response (±St. Dev.) ([2]; HEK Agonist Activity section): 11.55 ± 3.19%

Structure (SMILES): O=C(Nc1ccc(-c2cn[nH]c2)cc1OCCN1CCCC1)C1COc2ccc(F)cc2C1.O=C(O)C(F)(F)F.O=C(O)C(F)(F)F (centres unmarked) [SR-00000005389]
Averaged Max % Response (±St. Dev.) [1]: 116.35 ± 10.47%
Lipophilic Efficiency (logD) ([1]; based on logD): 4.67
Lipophilic Efficiency (logP) ([1]; based on logP): 3.26
Hill Slope ([1]; fitted dose-response curve): 0.77
Efficiency Ligand ([1]; ligand efficiency): 0.29
EC50 [1, 3]: 186 nM
Lipophilic Efficiency (logD) ([2]; HEK Agonist Activity section): 2.79
Lipophilic Efficiency (logP) ([2]; HEK Agonist Activity section): 1.38
EC50 [2, 4]: > 14100 nM
Averaged Max % Response (±St. Dev.) ([2]; HEK Agonist Activity section): 31.02 ± 4.14%

Structure (SMILES): Cc1[nH]ncc1-c1ccc(NC(=O)C2COc3ccc(F)cc3C2)c(OCCN2CCOCC2)c1.O=C(O)C(F)(F)F.O=C(O)C(F)(F)F (centres unmarked) [SR-00000005393]
Efficiency Ligand [1]: 0.25
Hill Slope [1]: 0.94
Lipophilic Efficiency (logD) [1]: 3.27
Lipophilic Efficiency (logP) [1]: 3.22
EC50 ([1]; HEK-GPR139 cells): 629 nM
Averaged Max % Response (±St. Dev.) [1]: 87.23 ± 6.46%
Lipophilic Efficiency (logD) ([2]; HEK Agonist Activity section): 1.92
Lipophilic Efficiency (logP) ([2]; HEK Agonist Activity section): 1.87
EC50 [2, 4]: > 14100 nM
Averaged Max % Response (±St. Dev.) ([2]; HEK Agonist Activity section): 10.82 ± 8.56%

Structure (SMILES): COC(=O)c1ccc(CNC(=O)Nc2ccc(-c3cn[nH]c3)cc2)cc1.O=C(O)C(F)(F)F [SR-00000005410]
Efficiency Ligand [1]: 0.31
Hill Slope [1]: 1.14
Lipophilic Efficiency (logD) [1]: 2.93
Lipophilic Efficiency (logP) [1]: 2.93
EC50 ([1]; HEK-GPR139 cells): 1900 nM
Averaged Max % Response (±St. Dev.) [1]: 99.92 ± 5.04%
Lipophilic Efficiency (logD) ([2]; HEK Agonist Activity section): 2.07
Lipophilic Efficiency (logP) ([2]; HEK Agonist Activity section): 2.07
EC50 [2, 4]: > 14100 nM
Averaged Max % Response (±St. Dev.) ([2]; HEK Agonist Activity section): 7.35 ± 2.40%

Structure (SMILES): COc1ccc(CCC(=O)Nc2ccc(-c3cn[nH]c3)c(OC)c2)cc1 [SR-00000005955]
Averaged Max % Response (±St. Dev.) [1]: 95.13 ± 3.75%
Lipophilic Efficiency (logD) ([1]; based on logD): 4.08
Lipophilic Efficiency (logP) ([1]; based on logP): 4.08
Hill Slope ([1]; fitted dose-response curve): 1.31
Efficiency Ligand ([1]; ligand efficiency): 0.39
EC50 [1, 3]: 62 nM
Lipophilic Efficiency (logD) ([2]; HEK Agonist Activity section): 1.73
Lipophilic Efficiency (logP) ([2]; HEK Agonist Activity section): 1.73
Averaged Max % Response (±St. Dev.) ([2]; HEK Agonist Activity section): 18.59 ± 8.23%
EC50 [2, 5]: > 14100 nM

Second part, led by results:

Averaged Max % Response (±St. Dev.) [1]: 103.42 ± 7.86%
Lipophilic Efficiency (logD) ([1]; based on logD): 6.10
Lipophilic Efficiency (logP) ([1]; based on logP): 5.03
Hill Slope ([1]; fitted dose-response curve): 0.54
Efficiency Ligand ([1]; ligand efficiency): 0.35
EC50 [1, 3]: 9 nM
Lipophilic Efficiency (logD) ([2]; HEK Agonist Activity): 2.91
Lipophilic Efficiency (logP) ([2]; HEK Agonist Activity): 1.83
Structure (SMILES): CN1CCC(Oc2cc(-c3cn[nH]c3)ccc2NC(=O)C2COc3ccc(F)cc3C2)C1 (centres unmarked) [SR-00000006339]
Averaged Max % Response (±St. Dev.) ([2]; HEK Agonist Activity): 5.16 ± 8.02%
EC50 ([2]; Homo sapiens, HEK293, HEK Agonist Activity, parental non-transfected HEK cells): > 14100 nM

Efficiency Ligand [1]: 0.29
Hill Slope [1]: 1.33
Lipophilic Efficiency (logD) [1]: 7.81
Lipophilic Efficiency (logP) [1]: 4.82
EC50 ([1]; HEK-GPR139 cells): 274 nM
Averaged Max % Response (±St. Dev.) [1]: 88.34 ± 12.18%
Lipophilic Efficiency (logD) ([2]; HEK Agonist Activity section): 6.10
Lipophilic Efficiency (logP) ([2]; HEK Agonist Activity section): 3.11
Structure (SMILES): COc1ccc2c(c1)C[C@H](C(=O)Nc1ccc(-c3cn[nH]c3)cc1OCC1CNC1)NC2.O=C(O)C(F)(F)F.O=C(O)C(F)(F)F.O=C(O)C(F)(F)F [SR-00000006698]
EC50 [2, 4]: > 14100 nM
Averaged Max % Response (±St. Dev.) ([2]; HEK Agonist Activity section): 5.81 ± 4.77%

Averaged Max % Response (±St. Dev.) [1]: 75.98 ± 6.44%
Lipophilic Efficiency (logD) ([1]; based on logD): 3.98
Lipophilic Efficiency (logP) ([1]; based on logP): 3.98
Hill Slope ([1]; fitted dose-response curve): 0.79
Efficiency Ligand ([1]; ligand efficiency): 0.36
Lipophilic Efficiency (logD) ([2]; HEK Agonist Activity section): 1.85
Lipophilic Efficiency (logP) ([2]; HEK Agonist Activity section): 1.85
Structure (SMILES): C=C(Nc1ccc(-c2cn[nH]c2)cc1)N(C)Cc1cccc(C(=O)CC)c1 [SR-00000007008]
Averaged Max % Response (±St. Dev.) ([2]; HEK Agonist Activity section): −8.12 ± 2.24%
EC50 [2, 5]: > 14100 nM

Efficiency Ligand [1]: 0.24
Hill Slope [1]: 1.19
Lipophilic Efficiency (logD) [1]: 5.00
Lipophilic Efficiency (logP) [1]: 3.11
EC50 ([1]; HEK-GPR139 cells): 1400 nM
Averaged Max % Response (±St. Dev.) [1]: 81.04 ± 10.01%
Lipophilic Efficiency (logD) ([2]; HEK Agonist Activity section): 3.98
Lipophilic Efficiency (logP) ([2]; HEK Agonist Activity section): 2.09
Structure (SMILES): COc1ccc2c(c1)C[C@H](C(=O)Nc1ccc(-c3cn[nH]c3)cc1OCCN1CCCC1)NC2.O=C(O)C(F)(F)F.O=C(O)C(F)(F)F.O=C(O)C(F)(F)F [SR-00000007044]
EC50 [2, 4]: > 14100 nM
Averaged Max % Response (±St. Dev.) ([2]; HEK Agonist Activity section): 26.95 ± 5.80%
